According to patent US12629374B2, “Antimalarial agents” (Merck Sharp & Dohme LLC, priority 2020, dated 2026):
Read-outs that look alike come from different tables or passages of the source.

Test system: ring stage parasites
Experiment: Parasite growth potency assay, 72 hours, LDH readout
Assay type: cell-based
Conditions: parasite growth measured by LDH assay after 72 hours at 37° C., 0.7% rings, 2% haematocrit, read-out: EC50
Procedure, shortened: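 Parasite growth was quantified by LDH assay after a −80 °C freeze-thaw. Before that, compound was incubated for 72 h at 37 °C under humidified gas with ring-stage cultures adjusted to 0.7% parasitemia and 2% haematocrit in serum- and albumax-supplemented RPMI-Hepes.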

SMILES | EC50 (72 h) | further results
CC(C)[C@]1(C)CC(=O)N([C@@H](c2cccc(C(=O)N[C@H]3CCOc4ccccc43)c2)C23CC(C2)C3)C(=N)N1 [Example 26, [(4S)-1-[1-bicyclo[1.1.1]pentanyl-[3-[[(4S)-chroman-4-yl]carbamoyl]phenyl]methyl]-4-isopropyl-4-methyl-6-oxo-hexahydropyrimidin-2-ylidene]ammonium; 2,2,2-trifluoroacetate] | 8.9 nM | 
C=C=C(C)[C@H](c1cccc(C(=O)N[C@H]2CCOc3ccccc32)c1)N1C(=N)NC(CC)(CC)CC1=O [Example 78, [1-[1-[3-[[(4S)-chroman-4-yl]carbamoyl]phenyl]-2-methyl-buta-2,3-dienyl]-4,4-diethyl-6-oxo-hexahydropyrimidin-2-ylidene]ammonium; 2,2,2-trifluoroacetate] | 3.1 nM | 
CCC1(CC)CC(=O)N([C@@H](c2cccnc2)c2cccc(C(=O)N[C@H]3CC(C)(C)Oc4ccccc43)c2)C(=N)N1 [Example 100B, [1-[[3-[[(4S)-2,2-dimethylchroman-4-yl]carbamoyl]phenyl]-pyridin-1-ium-3-yl-methyl]-4,4-diethyl-6-oxo-hexahydropyrimidin-2-ylidene]ammonium; 2,2,2-trifluoroacetate] | 4.8 nM | 
CCC[C@H](c1cccc(C(=O)N[C@@H]2c3ccccc3OC(C)(C)[C@H]2O)c1)N1C(=N)NC(CC)(CC)CC1=O [Example 119A, [4,4-diethyl-1-[(1R)-1-[3-[(3-hydroxy-2,2-dimethyl-chroman-4-yl)carbamoyl]phenyl]butyl]-6-oxo-hexahydropyrimidin-2-ylidene]ammonium; 2,2,2-trifluoroacetate] | 0.5 nM | 
CCC[C@H](c1cccc(C(=O)N[C@@H]2c3ccccc3CC2(C)O)c1)N1C(=N)NC(CC)(CC)CC1=O (stereo partly drawn) [Example 122D, 3-[(1R)-1-(4,4-diethyl-2-imino-6-oxo-hexahydropyrimidin-1-yl)butyl]-N-(2-hydroxy-2-methyl-indan-1-yl)benzamide] |  | EC50: 0.6 nM
CCC1(CC)CC(=O)N(Cc2cccc(C(=O)N[C@@H]3c4ccccc4OC3(C)C)c2)C(=N)N1 (stereo in doubt) [Example 186, [1-[[3-[(2,2-dimethyl-3H-benzofuran-3-yl)carbamoyl]phenyl]methyl]-4,4-diethyl-6-oxo-hexahydropyrimidin-2-ylidene]ammonium; 2,2,2-trifluoroacetate] | 10.9 nM | 
CCC1(CC)CC(=O)N([C@H](c2ccccc2)c2cccc(C(=O)N[C@@H]3c4ccccc4C[C@H]3O)c2)C(=N)N1 [Example 16, [4,4-diethyl-1-[[3-[[(1R,2R)-2-hydroxyindan-1-yl]carbamoyl]phenyl]-phenyl-methyl]-6-oxo-hexahydropyrimidin-2-ylidene]ammonium; 2,2,2-trifluoroacetate] | 0.3 nM | 
CCC1(CC)CC(=O)N([C@H](C)c2cccc(C(=O)N[C@@H]3c4ccccc4OC(C)(C)[C@@]3(C)O)c2)C(=N)N1 [Example 228, 3-[(1R)-1-(4,4-diethyl-2-imino-6-oxo-hexahydropyrimidin-1-yl)ethyl]-N-[(3S,4R)-3-hydroxy-2,2,3-trimethyl-chroman-4-yl]benzamide] | 0.34 nM | 
CCC1(CC)CC(=O)N(Cc2cccc(C(=O)N[C@H]3CCOc4ccccc43)c2F)C(=N)N1 [Example 20, [1-[[3-[[(4S)-chroman-4-yl]carbamoyl]-2-fluoro-phenyl]methyl]-4,4-diethyl-6-oxo-hexahydropyrimidin-2-ylidene]ammonium; 2,2,2-trifluoroacetate] | 10.9 nM | 
CCC1(CC)CC(=O)N([C@H](C)c2cccc(C(=O)N[C@@H]3c4ccccc4OC[C@@]3(C)O)c2)C(=N)N1 [Example 205A, [4,4-diethyl-1-[(1R)-1-[3-[[(3S,4R)-3-hydroxy-3-methyl-chroman-4-yl]carbamoyl]phenyl]ethyl]-6-oxo-hexahydropyrimidin-2-ylidene]ammonium; 2,2,2-trifluoroacetate] | 1.1 nM | 
CCC1(CC)CC(=O)N(C(COC)c2cccc(C(=O)N[C@@H]3c4ccccc4OC(C)(C)[C@H]3O)c2)C(=N)N1 (stereo partly drawn) [Example 232, 3-[l-(4,4-diethyl-2-imino-6-oxo-hexahydropyrimidin-1-yl)-2-methoxy-ethyl]-N-[(3S,4R)-3-hydroxy-2,2-dimethyl-chroman-4-yl]benzamide] | 0.32 nM | 
CC1(C)CC(=O)N(C(CC(F)(F)F)c2cccc(C(=O)N[C@@H]3c4ccccc4OC(C)(C)[C@H]3O)c2)C(=N)N1 (stereo partly drawn) [Example 233, N-[(3S,4R)-3-hydroxy-2,2-dimethyl-chroman-4-yl]-3-[3,3,3-trifluoro-1-(2-imino-4,4-dimethyl-6-oxo-hexahydropyrimidin-1-yl)propyl]benzamide] | 1.4 nM | 
CC[C@]1(c2ccccc2)CC(=O)N(Cc2cc(F)cc(C(=O)N[C@@H]3c4ccccc4C[C@H]3O)c2)C(=N)N1 [Example 53, [(4R)-4-ethyl-1-[[3-fluoro-5-[[(1R,2R)-2-hydroxyindan-1-yl]carbamoyl]phenyl]methyl]-6-oxo-4-phenyl-hexahydropyrimidin-2-ylidene]ammonium; 2,2,2-trifluoroacetate] | 25.3 nM | 
CCC1(CC)CC(=O)N([C@@H](CC(C)C)c2cccc(C(=O)N[C@H]3CCOc4ccccc43)c2)C(=N)N1 [Example 14B, [1-[1-[3-[[(4S)-chroman-4-yl]carbamoyl]phenyl]-3-methyl-butyl]-4,4-diethyl-6-oxo-hexahydropyrimidin-2-ylidene]ammonium; 2,2,2-trifluoroacetate] | 55 nM | 
CCC1(CC)CC(=O)N(Cc2cccc(C(=O)N[C@H]3CC(c4ccccc4)Oc4ccccc43)c2)C(=N)N1 (stereo in doubt) [Example 218B, [4,4-diethyl-6-oxo-1-[[3-[(2-phenylchroman-4-yl)carbamoyl]phenyl]methyl]hexa-hydropyrimidin-2-ylidene]ammonium; 2,2,2-trifluoroacetate] |  | EC50 (trifluoroacetate): 1.1 nM
C#CCCC[C@H](c1cccc(C(=O)N[C@H]2CCOc3ccccc32)c1)N1C(=N)NC(CC)(CC)CC1=O [Example 210A, [1-[1-[3-[[(4S)-chroman-4-yl]carbamoyl]phenyl]hex-5-ynyl]-4,4-diethyl-6-oxo-hexahydropyrimidin-2-ylidene]ammonium; 2,2,2-trifluoroacetate] | 0.7 nM | 
CCC1(CC)NC(=N)N(Cc2cc(F)cc(C(=O)N[C@H]3CCOc4ccccc43)c2)C(=O)C1C (stereo partly drawn) [Example 42, [1-[[3-[[(4S)-chroman-4-yl]carbamoyl]-5-fluoro-phenyl]methyl]-4,4-diethyl-5-methyl-6-oxo-hexahydropyrimidin-2-ylidene]ammonium; 2,2,2-trifluoroacetate] | 10.3 nM | 
CCC1(CC)CC(=O)N([C@H](CCS(C)(=O)=O)c2cccc(C(=O)N[C@H]3CC(C)(C)Oc4ccccc43)c2)C(=N)N1 [Example 156, [1-[1-[3-[[(4S)-2,2-dimethylchroman-4-yl]carbamoyl]phenyl]-3-methylsulfonyl-propyl]-4,4-diethyl-6-oxo-hexahydropyrimidin-2-ylidene]ammonium; 2,2,2-trifluoroacetate] | 5.7 nM | 
CCC[C@H](c1cccc(C(=O)N[C@@H]2c3ccccc3C[C@H]2O)c1)N1C(=N)N[C@@](CC)(c2ccccc2)CC1=O [Example 67, [(4R)-4-ethyl-1-[(1R)-1-[3-[[(1R,2R)-2-hydroxyindan-1-yl]carbamoyl]phenyl]butyl]-6-oxo-4-phenyl-hexahydropyrimidin-2-ylidene]ammonium; 2,2,2-trifluoroacetate] | 2.7 nM | 
C#CCC[C@@H](c1cccc(C(=O)N[C@H]2CC(C)(C)Oc3ccccc32)c1)N1C(=N)N[C@](C)(C(C)C)CC1=O [Example 108B, [(4S)-1-[1-[3-[[(4S)-2,2-dimethylchroman-4-yl]carbamoyl]phenyl]pent-4-ynyl]-4-isopropyl-4-methyl-6-oxo-hexahydropyrimidin-2-ylidene]ammonium; 2,2,2-trifluoroacetate] | 23.6 nM | 
CCC1(CC)CC(=O)N(C(CC(OC)C(F)(F)F)c2cccc(C(=O)N[C@@H]3c4ccccc4C[C@H]3O)c2)C(=N)N1 (single isomer, unassigned) [Example 238A] |  | EC50: 1.94 nM
CCC1(CC)CC(=O)N([C@H](CCOC(F)F)c2cccc(C(=O)N[C@@H]3c4ccccc4C[C@H]3O)c2)C(=N)N1 [Example 157, [1-[3-(difluoromethoxy)-1-[3-[[(1R,2R)-2-hydroxyindan-1-yl]carbamoyl]phenyl]propyl]-4,4-diethyl-6-oxo-hexahydropyrimidin-2-ylidene]ammonium; 2,2,2-trifluoroacetate] | 1.8 nM | 
CC[C@]1(C)CC(=O)N([C@H](CCOC)c2cccc(C(=O)NC3c4cc(F)ccc4OC(C)(C)C3(C)O)c2)C(=N)N1 (single isomer, unassigned) [Example 237B] |  | EC50: 0.19 nM
CCC1(CC)CC(=O)N([C@@H](CCOC)c2cccc(C(=O)NC3CC(C)(C)Oc4ccccc43)c2)C(=N)N1 (stereo in doubt) [Example 72A, [1-[1-[3-[(2,2-dimethylchroman-4-yl)carbamoyl]phenyl]-3-methoxy-propyl]-4,4-diethyl-6-oxo-hexahydropyrimidin-2-ylidene]ammonium; 2,2,2-trifluoroacetate] | 25.5 nM | 
CCC1(CC)CC(=O)N([C@H](COCCOC)c2cccc(C(=O)N[C@H]3CC(C)(C)Oc4ccccc43)c2)C(=N)N1 [Example 112A, [1-[1-[3-[[(4S)-2,2-dimethylchroman-4-6-oxo-hexahydropyrimidin-2-ylidene]ammonium; 2,2,2-trifluoroacetate] | 0.3 nM | 
CCC[C@H](c1cccc(C(=O)N[C@@H]2c3ccccc3C[C@H]2O)c1)N1C(=N)NC(CC)(CC)CC1=O [Example 102, [4,4-diethyl-1-[(1R)-1-[3-[[(1R,2R)-2-hydroxyindan-1-yl]carbamoyl]phenyl]butyl]-6-oxo-hexahydropyrimidin-2-ylidene]ammonium; 2,2,2-trifluoroacetate] | 0.5 nM | 
